111 compounds from the OPERA property sets (Mansouri et al. 2018) can be followed below.

Each structure is given as a SMILES string. Where a SMILES comes first, the peptide text is derived from it.

One may read the logP as the decadic logarithm of the partition coefficient of the neutral form, usually between octanol and water. With `c1ccc(OCc2cccc(CN3CCCOC3)c2)cc1`, the logP is 2.75.

`Clc1ccc(Cl)c(-c2ccc(Cl)c(Cl)c2Cl)c1` displayed a logP of 6.85.

Take `N#CCc1ccc(O)c2ncccc12`: the logP was 1.81.

`CCN(C)N=Nc1ccccc1C(N)=O` came in with a logP of 2.59.

`COc1ccc(NC(=O)OCCN2CCOCC2)cc1` registered a logP of 1.7.

For the compound `CCCCN(C)N=Nc1ccccc1C(N)=O`, the logP was 3.52.

The compound `O=C(O)c1ccc(CCl)cc1` displayed a logP of 2.12.

On to `COC(=O)CCCCC(S)CCS` (stereo unspecified), for which the logP is 2.27.

With `NC(=O)c1ccc2ccccc2c1`, the logP came to 1.88.

On to `CCCCCOc1ccccc1NC(=O)OCCN1CCOCC1`, for which the logP is 3.7.

With `Cn1c([N+](=O)[O-])cnc1C(N)=O`, the logP was 0.29.

Compound `CC(C)N(C=Nc1ccn(C2CC(O)C(CO)O2)c(=O)n1)C(C)C` (stereo unspecified) gave a logP of 0.17.

For `CCCCCCOc1cccc(NC(=O)OCCN2CCOCC2)c1`, the logP came out at 4.73.

`Clc1cc(Cl)c2c(c1)Oc1c(cc(Cl)c(Cl)c1Cl)O2`: the logP was 6.53.

Take `CSCCCNC(=O)C(F)(F)Cn1cnc([N+](=O)[O-])n1`: the logP came out at 0.76.

As for `CC(=O)NC(CCCCN)C(=O)NC(CC(C)C)C(N)=O` (stereo not drawn) (Ac-Lys-Leu-NH2; configuration not given here), the logP is -0.26.

Compound `Cc1[nH]cnc1CSCCNC1=NC(=O)CN1` gave a logP of -0.5.

`CCCc1ccc(OCC(C)O)c2c(=O)cc(C(=O)O)oc12` (stereo unspecified) had a logP of 3.

Turning to `Cc1nnc(SCC2=C(C(=O)OCOC(=O)C(C)(C)C)N3C(=O)C(NC(=O)Cn4cnnn4)C3SC2)s1` (stereo unspecified), the logP was 1.34.

On to `C#CCCOCn1ccnc1C=NO`, for which the logP worked out at 0.67.

In turn, `CC(=O)NC(CC(C)C)C(=O)NC(CC(=O)O)C(=O)NC(CC(C)C)C(N)=O` (stereo not drawn) (Ac-Leu-Asp-Leu-NH2; configuration not given here) showed a logP of 0.16.

The compound `CC(C)OC(=O)c1cnc2n(c1=O)C(C)CCC2` (stereo unspecified) displayed a logP of 0.99.

In turn, `CC1CC2C3CCC4=CC(=O)C=CC4(C)C3(F)C(O)CC2(C)C1(O)C(=O)NCc1ccc([N+](=O)[O-])cc1` (stereo unspecified) yielded a log partition coefficient (logP) of 3.44.

As for `Cc1ccc(C)c(NN=C(C#N)C#N)c1`, the logP is 3.08.

As to `CN(C)N=Nc1nccs1`, the logP was 1.27.

Take `C#CCOc1c(Cl)cc(NC=NOCCC)cc1Cl`: the log partition coefficient (logP) was 4.

`Cc1ccc(NN=C(C#N)C#N)c([N+](=O)[O-])c1` showed a logP of 2.5.

In turn, `CCC1COC(Cn2cncn2)(c2ccc([N+](=O)[O-])cc2)O1` (stereo unspecified) returned a logP of 1.52.

In turn, `Cn1ccc(=O)cc1` came in with a logP of -1.22.

As for `CC(=O)NC(CCCCN)C(=O)NC(Cc1ccccc1)C(N)=O` (stereo unspecified), the logP turned out to be 0.12.

In turn, `O=[N+]([O-])C=C1NCCN1Cc1cccnc1` showed a logP of -1.02.

Consider `COC(=O)c1c(C)[nH]c(-c2ncccc2Cl)c1C(=O)OC`, for which the logP was 1.51.

With `O=Cc1ccc(O)c2ncccc12`, the logP stood at 1.63.

`CC(O)CNC(=O)C(F)(F)Cn1cnc([N+](=O)[O-])n1` (stereo unspecified) returned a logP of -0.47.

The compound `Fc1ccc(SCc2ccc(CCCN3CCOCC3)cc2)cc1` came in with a logP of 3.51.

Compound `CC(=O)NC(CCCCN)C(=O)NC(Cc1ccccc1)C(=O)NC(CC(C)C)C(N)=O` (stereo not drawn) (Ac-Lys-Phe-Leu-NH2; configuration not given here) came in with a logP of 0.98.

Compound `c1ccc(Cn2ncnn2)cc1` returned a logP of 1.03.

In turn, `O=[N+]([O-])c1ccc2c(O)cccc2c1` had a logP of 3.5.

Compound `NC(=O)c1cc(-c2ccccc2)nnc1NCCN1CCOCC1` registered a logP of 1.86.

`O=C(Cn1ccnc1[N+](=O)[O-])NCCCCO` came in with a logP of -0.74.

Compound `O=c1n[n+]([O-])ccn1Cc1ccccc1` showed a logP of 0.19.

`CC(=O)c1ccc(O)c2ncccc12` registered a logP of 1.8.

Regarding `CCOc1cccc(OCc2ccccc2CCCN2CCC(O)CC2)c1`, the logP was found to be 3.5.

The compound `C=CCN(C)N=Nc1ccccc1C(N)=O` came in with a logP of 2.91.

In the case of `CC(=O)OC1C(=O)C2(C)C(O)CC3OCC3(OC(C)=O)C2C(OC(=O)c2ccccc2)C2(O)CC(OC(=O)C(O)Cc3ccccc3)C(C)=C1C2(C)C` (stereo unspecified), the logP turned out to be 2.9.

Compound `CC12CCC(=O)C=C1CCC1C2CCC2(C)C1CCC21CCC(=O)O1` (stereo unspecified) registered a logP of 2.98.

On to `CN(CCCn1ccnc1C=NO)S(=O)(=O)C(F)(F)F`, for which the logP was determined as 1.77.

`CCN(CC)C(=O)OCCCc1cccnc1` came in with a logP of 2.36.

Compound `Clc1ccc(-c2cc(Cl)c(Cl)cc2Cl)c(Cl)c1` showed a logP of 7.21.

Regarding `C[Si](C)(C)C`, the logP was determined as 3.24.

On to `O=c1[nH]c(Nc2ccccc2)nc2c1ncn2C1CC(O)C(CO)O1` (stereo unspecified), for which the logP was 0.4.

Compound `Brc1ccc(Br)c(-c2cc(Br)c(Br)cc2Br)c1` had a logP of 7.1.

Compound `CCOC(=O)COC(=O)c1cc(Oc2ccc(C(F)(F)F)cc2Cl)ccc1[N+](=O)[O-]` gave a logP of 3.65.

With `COCC(Cn1ccnc1[N+](=O)[O-])OC(C)=O` (stereo unspecified), the logP is -0.04.

On to `Cc1n[nH]c(C(=O)NC2CCCC2)c1[N+](=O)[O-]`, for which the logP came out at 1.24.

Consider `CCCN(C=Nc1ccn(C2CC(O)C(CO)O2)c(=O)n1)CCC` (stereo unspecified), for which the logP was found to be 0.4.

As to `Clc1cc2c(c(Cl)c1Cl)Oc1c(Cl)cccc1O2`, the logP came out at 6.39.

The compound `CCC(=O)C(CS(=O)(=O)c1ccc(C)cc1)c1ccc(OC)cc1` (stereo unspecified) yielded a logP of 2.47.

`Cc1ccc(C(=O)OCCN(C)C)cc1` yielded a logP of 2.53.

Turning to `c1ccc(SCc2ccccc2CCCN2CCOCC2)cc1`, the logP is 3.8.

The compound `C#CCOc1c(Cl)cc(NC=NOc2ccccc2)cc1Cl` came in with a logP of 4.4.

On to `CC(=O)N(CCO)c1c(I)c(C(=O)NC(CO)CO)c(I)c(C(=O)NC(CO)CO)c1I`, for which the logP is -2.33.

`O=C(O)CCCCCCCc1ccccc1` gave a logP of 4.09.

In turn, `NC(Cc1cccc2ccccc12)C(=O)O` (stereo unspecified) displayed a logP of -0.22.

`CC(=O)NC(CC(C)C)C(=O)NC(CCCCN)C(=O)NC(Cc1ccccc1)C(N)=O` (stereo not drawn) (Ac-Leu-Lys-Phe-NH2; configuration not given here) returned a logP of 1.14.

In turn, `CN(C)C=Nc1ccn(C2CC(O)C(CO)O2)c(=O)n1` (stereo unspecified) showed a logP of -1.54.

Compound `CC(O)COc1ccc(Cl)cc1` (stereo unspecified) showed a logP of 2.41.

Turning to `C#CCOc1c(Cl)cc(NC=NOCC#N)cc1Cl`, the logP turned out to be 3.

Compound `CC(=O)OC1(c2ccccc2)CCN(C)C(C)C1C` (stereo unspecified) registered a lipophilicity (logP) of 2.52.

`COc1ccc(OCc2ccccc2CCCN2CCC(O)CC2)cc1`: the logP was determined as 3.1.

Take `CO[C@@]1(NC(=O)C(C(=O)O)c2ccc(O)cc2)C(=O)N2C(C(=O)O)=C(CSc3nnnn3C)CO[C@@H]21` (stereo partly specified): the logP was -0.58.

`Nc1c2ncn(C3OC(CO)CC3F)c2nc[n+]1[O-]` (stereo unspecified): the logP was -1.38.

Compound `CCOC(=O)CCC(C)n1nc2ccccc2n1` (stereo unspecified) displayed a logP of 3.05.

Regarding `C#CCOc1c(Cl)cc(NC=NOCSC)cc1Cl`, the logP was determined as 3.6.

`O=C(c1ccc(F)cc1)C1CCN(CCn2c(=O)[nH]c3ccccc3c2=O)CC1` yielded a logP of 3.29.

`CCNC(=O)c1cccc2c1C(=O)C(=O)N(CC)C2=O` gave a logP of 0.3.

In the case of `CC(C)C(=O)Nc1cc(C(F)(F)F)ccc1S(N)(=O)=O`, the logP turned out to be 2.45.

In turn, `O=[N+]([O-])C=C1NCCN1CCc1ccc(Cl)nc1` yielded a logP of -0.23.

Turning to `CC(C)(C)NC(=O)C1CN(S(=O)(=O)c2cccc3cccnc23)CCN1CC(O)CC(Cc1ccccc1)C(=O)NC1c2ccccc2CC1O` (stereo unspecified), the logP amounted to 3.7.

In turn, `Cc1ncc([N+](=O)[O-])n1CC#N` showed a lipophilicity (logP) of -0.07.

Take `CC(C)N(C=Nc1ccn(C2OC(CO)C(O)C2O)c(=O)n1)C(C)C` (stereo unspecified): the logP came out at 0.01.

`Clc1cc(Cl)cc(-c2cc(Cl)c(Cl)c(Cl)c2Cl)c1`: the logP came out at 7.43.

For `Cc1cc([N+](=O)[O-])ccc1NN=C(C#N)C#N`, the logP amounted to 3.55.

As for `CC1CC2C3CCC4=CC(=O)C=CC4(C)C3(F)C(O)CC2(C)C1(O)C(N)=O` (stereo unspecified), the logP stood at 1.41.

The compound `CCCCCC(NC(C)=O)C(=O)OC` (stereo unspecified) came in with a logP of 1.28.

Turning to `CC(CCC(N)=O)n1nnc2ccccc21` (stereo unspecified), the logP stood at 1.15.

With `COc1ccccc1NC(=O)OCCN1CCOCC1`, the logP turned out to be 1.73.

For the compound `CCNC(=O)C1(O)C(C)CC2C3CCC4=CC(=O)C=CC4(C)C3(F)C(O)CC21C` (stereo unspecified), the logP is 2.07.

In turn, `C=C1CCC2C(C1)c1c(OC)cc(CCC)cc1OC2(C)C` (stereo unspecified) returned a logP of 6.26.

Regarding `CC1CC2C3CCC4=CC(=O)C=CC4(C)C3(F)C(O)CC2(C)C1(O)C(=O)NC1CCCCC1` (stereo unspecified), the logP is 3.54.

In the case of `Cc1ccc(CN2CCNC2=C[N+](=O)[O-])cn1`, the logP is -0.59.

For the compound `O=C(N/N=C/c1ccc[nH]1)Nc1ccccc1`, the logP is 2.96.

For `COC(O)Cn1c([N+](=O)[O-])nc(Br)c1Br` (stereo unspecified), the logP came out at 1.02.

`CN(C)C(=O)COC(=O)c1cc(S(N)(=O)=O)c(Cl)cc1NCc1ccco1` gave a logP of 1.18.

For `COc1ccc2[nH]c3c(c2c1)CCNc1cc(Cl)ccc1-3`, the logP stood at 4.24.

`CC(OCc1cn(C)c(C=NO)n1)C(C)(C)C` (stereo unspecified) showed a logP of 2.53.

In the case of `Sc1nc(-c2ccccc2)ns1`, the logP was 2.13.

`CCC(C)OC(=O)C(C(=O)OC(C)CC)=C1SC=CS1` (stereo unspecified) returned a logP of 4.89.

For the compound `O=C(O)C(Cc1ccc(O)cc1)n1cccc1` (stereo unspecified), the logP was 1.56.

The compound `S=C(N/N=C/c1ccc[nH]1)Nc1ccccc1` displayed a logP of 3.73.

Consider `CC(=O)c1ccc2c(c1)OCCOCCOCCOCCOCCO2`, for which the logP was -0.05.

Compound `CCN1C(=O)C(=O)c2cc3ccccc3cc2C1=O` displayed a logP of 2.47.

As for `CCC(=O)C(CS(=O)(=O)c1ccccc1)c1ccc(Cl)cc1` (stereo unspecified), the logP worked out at 2.69.

Turning to `OC1CCN(CCCc2ccccc2COc2ccc(F)cc2)CC1`, the logP was found to be 3.3.

Regarding `Cn1cc(-c2ccccc2)c(=O)c(-c2cccc(C(F)(F)F)c2)c1`, the logP was determined as 3.16.

For `Oc1ccc(F)c2cccnc12`, the logP is 2.3.

As for `CC1=C(c2ccccc2)CCN(C)C1`, the logP is 3.18.

On to `CC1(c2ccccc2)OC(=O)NC1=O` (stereo unspecified), for which the logP came to 1.85.

`OCc1ccc(O)c2ncccc12` yielded a log partition coefficient (logP) of 1.

`CC(=O)c1c(C)n(C)c2ccccc12` displayed a logP of 2.03.

Regarding `Clc1cc(Cl)c(-c2cc(Cl)c(Cl)c(Cl)c2)c(Cl)c1`, the logP stood at 7.25.
